{"source": "patent US12291519B2", "about": "“2-hydroxycycloalkane-1-carbamoyl” (Idorsia Pharmaceuticals Ltd, priority 2019, dated 2025)", "key": {"[1]": {"molecular_target": "human Gal-3 (hGal-3) (Homo sapiens (Human), UniProt P17931)", "sequence (P17931 whole entry)": "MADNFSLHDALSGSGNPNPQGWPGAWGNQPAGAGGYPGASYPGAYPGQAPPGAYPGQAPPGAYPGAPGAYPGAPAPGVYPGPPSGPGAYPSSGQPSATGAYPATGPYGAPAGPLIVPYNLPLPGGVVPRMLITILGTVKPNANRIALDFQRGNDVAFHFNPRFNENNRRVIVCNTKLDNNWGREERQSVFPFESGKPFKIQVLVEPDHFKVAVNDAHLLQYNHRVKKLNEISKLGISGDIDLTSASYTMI", "experiment": "Competitive binding assay: biotinylated hGal-3 binding to microplate-adsorbed asialofetuin (ASF)", "conditions": "Activity on hGal-3; binding of biotinylated hGal-3 to ASF-coated plates; mean values", "outline": "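Serially diluted compounds competed with biotinylated human Gal-3 for binding to plate-adsorbed asialofetuin over 3 h at 4 °C. Bound Gal-3 was detected with streptavidin-peroxidase (80 ng/mL, 1 h, 4 °C) and ABTS substrate. IC50 values are means of several measurements.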"}, "[2]": {"molecular_target": "human Gal-1 (hGal-1)", "sequence (P09382 2-135 limits assumed)": "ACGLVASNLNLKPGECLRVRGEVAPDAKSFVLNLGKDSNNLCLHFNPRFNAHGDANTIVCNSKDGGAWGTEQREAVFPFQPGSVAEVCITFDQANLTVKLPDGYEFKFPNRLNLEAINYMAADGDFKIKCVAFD", "experiment": "Competitive binding assay: biotinylated hGal-1 binding to microplate-adsorbed asialofetuin (ASF)", "conditions": "Activity on hGal-1; binding of biotinylated hGal-1 to ASF-coated plates; mean values", "outline": "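Inhibition measured as loss of hGal-1 (biotinylated, 300–1000 ng/mL, wild type or Cys→Ser mutant) binding to adsorbed asialofetuin over 3 h at 4 °C. Bound lectin detected with streptavidin-HRP and ABTS (410 nm, 30–45 min); IC50 values averaged across repeat measurements.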"}}}
{"smiles": "CO[C@@H]1[C@@H](n2cc(-c3ccc(F)c(F)c3)nn2)[C@@H](O)[C@@H](CO)O[C@H]1C(=O)N(c1cc(Cl)cc(Cl)c1)[C@H]1CCCC[C@@H]1O", "note": "[Example 162, (2R,3R,4S,5R,6R)-N-(3,5-dichlorophenyl)-4-(4-(3,4-difluorophenyl)-1H-1,2,3-triazol-1-yl)-5-hydroxy-N-((1S,2S)-2-hydroxycyclohexyl)-6-(hydroxymethyl)-3-methoxytetrahydro-2H-pyran-2-carboxamide]", "values": [{"measurement": "IC50", "setting": "[1]", "result": 32, "unit": "nM"}, {"measurement": "IC50", "setting": "[2]", "result": 134, "unit": "nM"}]}
{"smiles": "CO[C@@H]1[C@@H](n2cc(-c3ccc(Br)c(F)c3)nn2)[C@@H](O)[C@@H](CO)O[C@H]1C(=O)N(c1cc(Cl)cc(Cl)c1)[C@H]1CCCC[C@@H]1O", "note": "[Example 163, (2R,3R,4S,5R,6R)-4-(4-(4-bromo-3-fluorophenyl)-1H-1,2,3-triazol-1-yl)-N-(3,5-dichlorophenyl)-5-hydroxy-N-((1S,2S)-2-hydroxycyclohexyl)-6-(hydroxymethyl)-3-methoxytetrahydro-2H-pyran-2-carboxamide]", "values": [{"measurement": "IC50", "setting": "[1]", "result": 18, "unit": "nM"}, {"measurement": "IC50", "setting": "[2]", "result": 1270, "unit": "nM"}]}
{"smiles": "CO[C@@H]1[C@@H](n2cc(-c3ccc(Br)c(F)c3)nn2)[C@@H](O)[C@@H](CO)O[C@H]1C(=O)N(c1ccc(F)c(F)c1)[C@H]1CCCC[C@@H]1O", "note": "[Example 164, (2R,3R,4S,5R,6R)-4-(4-(4-bromo-3-fluorophenyl)-1H-1,2,3-triazol-1-yl)-N-(3,4-difluorophenyl)-5-hydroxy-N-((1S,2S)-2-hydroxycyclohexyl)-6-(hydroxymethyl)-3-methoxytetrahydro-2H-pyran-2-carboxamide]", "values": [{"measurement": "IC50", "setting": "[1]", "result": 58, "unit": "nM"}, {"measurement": "IC50", "setting": "[2]", "result": 1940, "unit": "nM"}]}
{"smiles": "CO[C@@H]1[C@@H](n2cc(-c3ccc(Br)c(F)c3)nn2)[C@@H](O)[C@@H](CO)O[C@H]1C(=O)N(c1cc(Cl)cc(C#N)c1)[C@H]1CCCC[C@@H]1O", "note": "[Example 165, (2R,3R,4S,5R,6R)-4-(4-(4-bromo-3-fluorophenyl)-1H-1,2,3-triazol-1-yl)-N-(3-chloro-5-cyanophenyl)-5-hydroxy-N-((1S,2S)-2-hydroxycyclohexyl)-6-(hydroxymethyl)-3-methoxytetrahydro-2H-pyran-2-carboxamide]", "values": [{"measurement": "IC50", "setting": "[1]", "result": 34, "unit": "nM"}, {"measurement": "IC50", "setting": "[2]", "result": 792, "unit": "nM"}]}
{"smiles": "CO[C@@H]1[C@@H](n2cc(-c3cc(F)c(Cl)c(Cl)c3)nn2)[C@@H](O)[C@@H](CO)O[C@H]1C(=O)N(c1cc(Cl)cc(Cl)c1)[C@H]1CCCC[C@@H]1O", "note": "[Example 166, (2R,3R,4S,5R,6R)-4-(4-(3,4-dichloro-5-fluorophenyl)-1H-1,2,3-triazol-1-yl)-N-(3,5-dichlorophenyl)-5-hydroxy-N-((1S,2S)-2-hydroxycyclohexyl)-6-(hydroxymethyl)-3-methoxytetrahydro-2H-pyran-2-carboxamide]", "values": [{"measurement": "IC50", "setting": "[1]", "result": 22, "unit": "nM"}, {"measurement": "IC50", "setting": "[2]", "result": 1340, "unit": "nM"}]}
{"smiles": "CO[C@@H]1[C@@H](n2cc(-c3cc(F)c(Cl)c(Cl)c3)nn2)[C@@H](O)[C@@H](CO)O[C@H]1C(=O)N(c1ccc(F)c(F)c1)[C@H]1CCCC[C@@H]1O", "note": "[Example 167, (2R,3R,4S,5R,6R)-4-(4-(3,4-dichloro-5-fluorophenyl)-1H-1,2,3-triazol-1-yl)-N-(3,4-difluorophenyl)-5-hydroxy-N-((1S,2S)-2-hydroxycyclohexyl)-6-(hydroxymethyl)-3-methoxytetrahydro-2H-pyran-2-carboxamide]", "values": [{"measurement": "IC50", "setting": "[1]", "result": 64, "unit": "nM"}, {"measurement": "IC50", "setting": "[2]", "result": 1240, "unit": "nM"}]}
{"smiles": "CO[C@@H]1[C@@H](n2cc(-c3cc(F)c(Cl)c(Cl)c3)nn2)[C@@H](O)[C@@H](CO)O[C@H]1C(=O)N(c1ccc2ncsc2c1)[C@H]1CCCC[C@@H]1O", "note": "[Example 168, (2R,3R,4S,5R,6R)-N-(benzo[d]thiazol-6-yl)-4-(4-(3,4-dichloro-5-fluorophenyl)-1H-1,2,3-triazol-1-yl)-5-hydroxy-N-((1S,2S)-2-hydroxycyclohexyl)-6-(hydroxymethyl)-3-methoxytetrahydro-2H-pyran-2-carboxamide]", "values": [{"measurement": "IC50", "setting": "[1]", "result": 25, "unit": "nM"}, {"measurement": "IC50", "setting": "[2]", "result": 672, "unit": "nM"}]}
{"smiles": "CO[C@@H]1[C@@H](n2cc(-c3ccc(C)c(F)c3)nn2)[C@@H](O)[C@@H](CO)O[C@H]1C(=O)N(c1cc(Cl)cc(C#N)c1)[C@H]1CCCC[C@@H]1O", "note": "[Example 170, (2R,3R,4S,5R,6R)-N-(3-chloro-5-cyanophenyl)-4-(4-(3-fluoro-4-methylphenyl)-1H-1,2,3-triazol-1-yl)-5-hydroxy-N-((1S,2S)-2-hydroxycyclohexyl)-6-(hydroxymethyl)-3-methoxytetrahydro-2H-pyran-2-carboxamide]", "values": [{"measurement": "IC50", "setting": "[1]", "result": 18, "unit": "nM"}, {"measurement": "IC50", "setting": "[2]", "result": 569, "unit": "nM"}]}
{"smiles": "CO[C@@H]1[C@@H](n2cc(-c3ccc(C)c(F)c3F)nn2)[C@@H](O)[C@@H](CO)O[C@H]1C(=O)N(c1cc(Cl)cc(C#N)c1)[C@H]1CCCC[C@@H]1O", "note": "[Example 171, (2R,3R,4S,5R,6R)-N-(3-chloro-5-cyanophenyl)-4-(4-(2,3-difluoro-4-methylphenyl)-1H-1,2,3-triazol-1-yl)-5-hydroxy-N-((1S,2S)-2-hydroxycyclohexyl)-6-(hydroxymethyl)-3-methoxytetrahydro-2H-pyran-2-carboxamide]", "values": [{"measurement": "IC50", "setting": "[1]", "result": 12, "unit": "nM"}, {"measurement": "IC50", "setting": "[2]", "result": 238, "unit": "nM"}]}
{"smiles": "Cc1ccc(-c2cn([C@H]3[C@@H](O)[C@@H](CO)O[C@@H](C(=O)N(c4cc(Cl)cc(C#N)c4)[C@H]4CCCC[C@@H]4O)[C@@H]3OCC(=O)O)nn2)c(F)c1F", "note": "[Example 172, 2-(((2R,3R,4S,5R,6R)-2-((3-chloro-5-cyanophenyl)((1S,2S)-2-hydroxycyclohexyl)carbamoyl)-4-(4-(2,3-difluoro-4-methylphenyl)-1H-1,2,3-triazol-1-yl)-5-hydroxy-6-(hydroxymethyl)tetrahydro-2H-pyran-3-yl)oxy)acetic acid]", "values": [{"measurement": "IC50", "setting": "[1]", "result": 11, "unit": "nM"}, {"measurement": "IC50", "setting": "[2]", "result": 421, "unit": "nM"}]}
{"smiles": "Cc1ccc(-c2cn([C@H]3[C@@H](O)[C@@H](CO)O[C@@H](C(=O)N(c4cc(Cl)cc(C#N)c4)[C@H]4CCCC[C@@H]4O)[C@@H]3OCC(=O)N3CCOCC3)nn2)c(F)c1F", "note": "[Example 173, (2R,3R,4S,5R,6R)-N-(3-chloro-5-cyanophenyl)-4-(4-(2,3-difluoro-4-methylphenyl)-1H-1,2,3-triazol-1-yl)-5-hydroxy-N-((1S,2S)-2-hydroxycyclohexyl)-6-(hydroxymethyl)-3-(2-morpholino-2-oxoethoxy)tetrahydro-2H-pyran-2-carboxamide]", "values": [{"measurement": "IC50", "setting": "[1]", "result": 9, "unit": "nM"}, {"measurement": "IC50", "setting": "[2]", "result": 509, "unit": "nM"}]}
{"smiles": "COc1cc(F)c(F)cc1-c1cn([C@H]2[C@@H](O)[C@@H](CO)O[C@@H](C(=O)N(c3cc(Cl)cc(C#N)c3)[C@H]3CCCC[C@@H]3O)[C@@H]2OC)nn1", "note": "[Example 174, (2R,3R,4S,5R,6R)-N-(3-chloro-5-cyanophenyl)-4-(4-(4,5-difluoro-2-methoxyphenyl)-1H-1,2,3-triazol-1-yl)-5-hydroxy-N-((1S,2S)-2-hydroxycyclohexyl)-6-(hydroxymethyl)-3-methoxytetrahydro-2H-pyran-2-carboxamide]", "values": [{"measurement": "IC50", "setting": "[1]", "result": 40, "unit": "nM"}, {"measurement": "IC50", "setting": "[2]", "result": 750, "unit": "nM"}]}
{"smiles": "CO[C@@H]1[C@@H](n2cc(-c3ccc(Br)c(F)c3F)nn2)[C@@H](O)[C@@H](CO)O[C@H]1C(=O)N(c1cc(Cl)cc(C#N)c1)[C@H]1CCCC[C@@H]1O", "note": "[Example 175, (2R,3R,4S,5R,6R)-4-(4-(4-bromo-2,3-difluorophenyl)-1H-1,2,3-triazol-1-yl)-N-(3-chloro-5-cyanophenyl)-5-hydroxy-N-((1S,2S)-2-hydroxycyclohexyl)-6-(hydroxymethyl)-3-methoxytetrahydro-2H-pyran-2-carboxamide]", "values": [{"measurement": "IC50", "setting": "[1]", "result": 13, "unit": "nM"}, {"measurement": "IC50", "setting": "[2]", "result": 386, "unit": "nM"}]}
{"smiles": "CO[C@@H]1[C@@H](n2cc(-c3ccc(Br)c(F)c3F)nn2)[C@@H](O)[C@@H](CO)O[C@H]1C(=O)N(c1cc(F)cc(C#N)c1)[C@H]1CCCC[C@@H]1O", "note": "[Example 176, (2R,3R,4S,5R,6R)-4-(4-(4-bromo-2,3-difluorophenyl)-1H-1,2,3-triazol-1-yl)-N-(3-cyano-5-fluorophenyl)-5-hydroxy-N-((1S,2S)-2-hydroxycyclohexyl)-6-(hydroxymethyl)-3-methoxytetrahydro-2H-pyran-2-carboxamide]", "values": [{"measurement": "IC50", "setting": "[1]", "result": 15, "unit": "nM"}, {"measurement": "IC50", "setting": "[2]", "result": 682, "unit": "nM"}]}
{"smiles": "CO[C@@H]1[C@@H](n2cc(-c3ccc(Br)c(F)c3F)nn2)[C@@H](O)[C@@H](CO)O[C@H]1C(=O)N(c1cc(Cl)cc(Cl)c1)[C@H]1CCCC[C@@H]1O", "note": "[Example 177, (2R,3R,4S,5R,6R)-4-(4-(4-bromo-2,3-difluorophenyl)-1H-1,2,3-triazol-1-yl)-N-(3,5-dichlorophenyl)-5-hydroxy-N-((1S,2S)-2-hydroxycyclohexyl)-6-(hydroxymethyl)-3-methoxytetrahydro-2H-pyran-2-carboxamide]", "values": [{"measurement": "IC50", "setting": "[1]", "result": 13, "unit": "nM"}, {"measurement": "IC50", "setting": "[2]", "result": 852, "unit": "nM"}]}
{"smiles": "CO[C@@H]1[C@@H](n2cc(-c3ccc(Cl)c(F)c3F)nn2)[C@@H](O)[C@@H](CO)O[C@H]1C(=O)N(c1cc(Cl)cc(C#N)c1)[C@H]1CCCC[C@@H]1O", "note": "[Example 178, (2R,3R,4S,5R,6R)-4-(4-(4-chloro-2,3-difluorophenyl)-1H-1,2,3-triazol-1-yl)-N-(3-chloro-5-cyanophenyl)-5-hydroxy-N-((1S,2S)-2-hydroxycyclohexyl)-6-(hydroxymethyl)-3-methoxytetrahydro-2H-pyran-2-carboxamide]", "values": [{"measurement": "IC50", "setting": "[1]", "result": 26, "unit": "nM"}, {"measurement": "IC50", "setting": "[2]", "result": 123, "unit": "nM"}]}
{"smiles": "CO[C@@H]1[C@@H](n2cc(-c3ccc(Cl)c(F)c3)nn2)[C@@H](O)[C@@H](CO)O[C@H]1C(=O)N(c1cc(Cl)cc(Cl)c1)[C@H]1CCCC[C@@H]1O", "note": "[Example 179, (2R,3R,4S,5R,6R)-4-(4-(4-chloro-3-fluorophenyl)-1H-1,2,3-triazol-1-yl)-N-(3,5-dichlorophenyl)-5-hydroxy-N-((1S,2S)-2-hydroxycyclohexyl)-6-(hydroxymethyl)-3-methoxytetrahydro-2H-pyran-2-carboxamide]", "values": [{"measurement": "IC50", "setting": "[1]", "result": 10, "unit": "nM"}, {"measurement": "IC50", "setting": "[2]", "result": 591, "unit": "nM"}]}
